Test results from patent publication US8530471B2, “Therapeutic cyclopentane derivatives” (Allergan, Inc., priority 2008, dated 2013).

What was measured:
normotensive dogs = assay: Intraocular pressure (IOP) reduction in normotensive dogs; format: in vivo
Protocol: Compounds such as those described in the above are tested in vivo to measure its ability to reduce intraocular pressure. Compound A is tested in normotensive dogs.
Compound B is tested in normotensive dogs.

[1] = test system: laser-induced hypertensive monkeys; assay: Intraocular pressure (IOP) reduction in laser-induced hypertensive monkeys; format: in vivo
[2] = test system: lashes and adjacent hairs of patients; assay: Observation of lashes in glaucoma patients treated in only one eye; format: in vivo, human; settings: glaucoma patient, unilateral treatment
Excerpt: In the course of treating patients having glaucoma, treatment may only be appropriate in one eye. […] The lash appearance on the lids of the treated eyes would have appeared quite attractive if it represented a bilateral phenomenon. As a result of its asymmetric nature, the long lashes on one side could be construed as disturbing from a cosmetic standpoint. A systemic examination was preformed as a result of the asymmetric phenomenon. It soon became apparent that this altered appearance was not an isolated finding. […] Definite differences could be identified to varying degrees in the lashes and adjacent hairs of all patients who were taking the drug on a unilateral basis for longer than 6 months.
The changes in the lashes were apparent on gross inspection in several patients once attention was focused on the issue. In those with light colored hair and lashes, the differences were only seen easily with the aid of the high magnification and lighting capabilities of the slit lamp biomicroscope. In the course of glaucoma follow-up examination, attention is generally immediately focused on the eye itself. As a result of the high power magnification needed only one eye is seen at a time and the eye is seen at a high enough power that the lashes are not in focus. […]

SMILES	intraocular pressure (IOP) change from baseline (normotensive dogs)	intraocular pressure (IOP) change from baseline [1]	lash appearance in treated eye versus non-treated eye [2]
CCCCCC(O)c1ccc([C@@H]2[C@@H](C/C=C\CCCC(=O)OCCN3CCOCC3)[C@H](C#N)C[C@H]2O)cc1 (some centres unmarked) [Compound B]	decreases from baseline	decreases from baseline	
CCCCCC(O)c1ccc([C@@H]2[C@@H](C/C=C\CCCC(=O)OCCO)[C@H](C#N)C[C@H]2O)cc1 (some centres unmarked) [Compound A]	decreases from baseline	decreases from baseline	
CCNC(=O)CCC/C=C\C[C@@H]1[C@@H](/C=C/[C@@H](O)CCc2ccccc2)[C@H](O)C[C@@H]1O [bimatoprost]			longer, thicker, and fuller in the treated eye than in the non-treated eye
